Experimental data from the supplement of paper PMC10627819.

Assays:
[1] = system: B. subtilis 168; assay: fitness (endpoint OD595 vs no drug) (fraction); higher = more growth
Method in brief: (§1)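 Fitness expresses the optical density reached at the stationary-phase transition as a fraction of the robust mean of no-drug control wells. It is capped at 1. Measurements were OD595 every 30 min for 14 h at 37 °C after inoculation of 384-well plates at OD595 0.01 (30 µl, or 55 µl for S. pneumoniae), minus the first reading.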

[2] = system: S. aureus Newman; assay: as above
Method in brief: as §1

[3] = system: S. pneumoniae D39V; assay: as above
Method in brief: as §1

[4] = system: B. subtilis 168; assay: Bliss interaction score (quartile over a dose matrix) (fitness difference); higher = more antagonism (negative = synergy)
Method in brief: (§2)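 Each OD595 reading at entry into stationary phase was scaled to the robust mean of the untreated wells on its plate, with a ceiling of 1. These ratios define fitness, and single-drug fitness was inferred from combinations. The Bliss score compares observed fitness with the product-based expectation and is reported as quartiles across all replicate types, technical, biological and donor/recipient.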

[5] = system: S. aureus DSM 20231; assay: as above
Method in brief: as §2

[6] = system: S. aureus Newman; assay: as above
Method in brief: as §2

[7] = system: S. pneumoniae D39V; assay: as above
Method in brief: as §2
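Wherever Bliss interaction score (quartile over a dose matrix) is given: first quartile when negative (synergy) and third quartile when positive (antagonism).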
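Wherever fitness (endpoint OD595 vs no drug) is given: OD595 on entry to stationary phase over no-drug wells; at most 1.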

CC1=C(C(=O)O)N2C(=O)[C@@H](NC(=O)[C@H](N)c3ccccc3)[C@H]2SC1 [Cephalexin] + CN1C2=CC=CC=C2N=C3C1=CC=CC3=O [Pyocyanin]
fitness
Settings	first compound 0.125 µg/mL	first compound 0.25 µg/mL	first compound 0.5 µg/mL	first compound 1 µg/mL
[1], partner 1.25 µg/mL	0.923	0.916	0.881	–
[1], partner 2.5 µg/mL	0.874	0.836	0.823	–
[1], partner 5 µg/mL	0.719	0.686	0.679	–
[2], partner 1.25 µg/mL	–	0.928	0.92	0.823
[2], partner 2.5 µg/mL	–	0.905	0.892	–
[2], partner 5 µg/mL	–	0.604	0.559	–

fitness, [3], one replicate
Settings	first compound 0.125 µg/mL	first compound 0.25 µg/mL	first compound 0.5 µg/mL	first compound 1 µg/mL	first compound 2 µg/mL	first compound 4 µg/mL
partner 0.325 µg/mL	0.976	≥ 1	≥ 1	0.817	0.328	0.0365
partner 0.65 µg/mL	0.933	≥ 1	≥ 1	0.891	0.65	0.158
partner 1.3 µg/mL	0.762	0.805	0.822	–	–	–

Settings	Bliss interaction score
[4]	-0.0454
[5]	0.0604
[6]	0.0862
[7]	0.0919

CC1=C(C(=O)O)N2C(=O)[C@@H](NC(=O)[C@H](N)c3ccccc3)[C@H]2SC1 [Cephalexin] + Cc1cc(NS(=O)(=O)c2ccc(N)cc2)no1 [Sulfamethoxazol]
fitness
Settings	first compound 0.125 µg/mL	first compound 0.25 µg/mL	first compound 0.5 µg/mL	first compound 1 µg/mL
[1], partner 1 µg/mL	0.951	0.924	0.895	–
[1], partner 2 µg/mL	0.904	0.937	0.902	–
[1], partner 4 µg/mL	0.955	0.929	0.945	–
[2], partner 1 µg/mL	–	≥ 1	0.988	1
[2], partner 2 µg/mL	–	≥ 1	0.979	0.983
[2], partner 4 µg/mL	–	0.999	≥ 1	≥ 1

fitness, one replicate
Settings	first compound 0.125 µg/mL	first compound 0.25 µg/mL	first compound 0.5 µg/mL	first compound 1 µg/mL	first compound 2 µg/mL	first compound 4 µg/mL
[1], partner 0.5 µg/mL	–	0.987	≥ 1	≥ 1	–	–
[1], partner 1 µg/mL	–	–	–	0.861	–	–
[1], partner 2 µg/mL	–	–	–	0.809	–	–
[2], partner 2 µg/mL	–	–	–	–	≥ 1	–
[2], partner 4 µg/mL	–	–	–	–	≥ 1	–
[2], partner 8 µg/mL	–	–	0.944	≥ 1	≥ 1	–
[3], partner 1 µg/mL	0.92	0.925	0.933	0.678	0.0509	0
[3], partner 2 µg/mL	0.961	0.937	0.979	0.717	0.165	0.0786
[3], partner 4 µg/mL	0.963	0.972	0.954	0.685	0.209	0.013

Settings	Bliss interaction score
[4]	0.0517
[5]	0.059
[6]	-0.021
[7]	0.0504

CNC(C)C1CCC(N)C(OC2C(N)CC(N)C(OC3OCC(C)(O)C(NC)C3O)C2O)O1 (stereo not given) [Gentamicin] + CN[C@@H]1[C@H](O)[C@H](NC)[C@H]2O[C@@]3(O)C(=O)C[C@@H](C)O[C@H]3O[C@@H]2[C@H]1O [Spectinomycin]
fitness, main component drawn
Settings	partner 2 µg/mL	partner 4 µg/mL	partner 8 µg/mL	partner 16 µg/mL
[1], first compound 0.0625 µg/mL	0.951	0.988	0.814	–
[1], first compound 0.25 µg/mL	0.325	0.148	–	–
[2], first compound 0.375 µg/mL	–	0.915	0.984	0.961
[2], first compound 0.5 µg/mL	–	0.931	0.966	0.891
[2], first compound 0.75 µg/mL	–	0.928	≥ 1	0.95
[2], first compound 1 µg/mL	–	0.993	0.991	0.933
[2], first compound 1.5 µg/mL	–	0.923	≥ 1	0.96
[2], first compound 2 µg/mL	–	≥ 1	≥ 1	–
[3], first compound 2 µg/mL	–	0.964	0.901	0.663
[3], first compound 4 µg/mL	–	0.914	0.807	0.643
[3], first compound 8 µg/mL	–	0.957	0.879	0.645

fitness, [2], one replicate, main component drawn
Settings	first compound 1 µg/mL	first compound 2 µg/mL	first compound 4 µg/mL
partner 16 µg/mL	–	–	0.0712
partner 32 µg/mL	0.507	0.101	0.0361
partner 64 µg/mL	0.0654	0.0856	0.0746

main component drawn
Settings	Bliss interaction score
[4]	0.0812
[5]	0.044
[6]	0.0532
[7]	0.0871

CNC(C)C1CCC(N)C(OC2C(N)CC(N)C(OC3OCC(C)(O)C(NC)C3O)C2O)O1 (stereo not given) [Gentamicin] + Cc1cc(NS(=O)(=O)c2ccc(N)cc2)no1 [Sulfamethoxazol]
one replicate, main component drawn
Settings	fitness
[1], first compound 0.0625 µg/mL, partner 0.5 µg/mL	0.848
[1], first compound 0.125 µg/mL, partner 0.5 µg/mL	0.975
[1], first compound 0.25 µg/mL, partner 0.5 µg/mL	0.864
[2], first compound 0.375 µg/mL, partner 1 µg/mL	≥ 1
[2], first compound 0.375 µg/mL, partner 2 µg/mL	0.979
[2], first compound 0.375 µg/mL, partner 4 µg/mL	≥ 1
[2], first compound 0.75 µg/mL, partner 1 µg/mL	0.974
[2], first compound 0.75 µg/mL, partner 2 µg/mL	0.926
[2], first compound 0.75 µg/mL, partner 4 µg/mL	≥ 1
[2], first compound 1 µg/mL, partner 8 µg/mL	≥ 1
[2], first compound 1.5 µg/mL, partner 1 µg/mL	≥ 1
[2], first compound 1.5 µg/mL, partner 2 µg/mL	0.975
[2], first compound 1.5 µg/mL, partner 4 µg/mL	0.981
[2], first compound 2 µg/mL, partner 8 µg/mL	0.975
[2], first compound 4 µg/mL, partner 2 µg/mL	0.899
[2], first compound 4 µg/mL, partner 4 µg/mL	0.691
[2], first compound 4 µg/mL, partner 8 µg/mL	0.852

fitness, main component drawn
Settings	partner 1 µg/mL	partner 2 µg/mL	partner 4 µg/mL
[1], first compound 0.0625 µg/mL	0.904	0.902	0.906
[1], first compound 0.25 µg/mL	–	–	0.0278
[2], first compound 0.5 µg/mL	0.948	0.936	0.981
[2], first compound 1 µg/mL	≥ 1	≥ 1	0.999
[2], first compound 2 µg/mL	0.98	0.986	1
[3], first compound 2 µg/mL	0.942	0.942	0.962
[3], first compound 4 µg/mL	0.973	0.977	0.967
[3], first compound 8 µg/mL	0.978	0.968	0.951

main component drawn
Settings	Bliss interaction score
[4]	0.128
[5]	0.0736
[6]	-0.0274
[7]	0.0873
